Measurements as given in patent publication US6525001B1, “Substituted pyrimidine and pyridine herbicides” (Mid-American Commercialization Corporation, priority 1997, dated 2003).

Key:
Type in all cases: in vivo
[1] = system: bedstraw (Galium aparine); assay: Test B pre-/postemergence; design: key: 0 is no effect; 10 is complete control; details: for Bedstraw plant response rating: Preemergence
Outline: (§1)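 Compounds in a surfactant-containing, non-phytotoxic solvent blend are applied to freshly planted seed (preemergence) and, concurrently, to seedlings of 2 to 18 cm at 1–4 leaves (postemergence). Plants stay in the greenhouse twelve to sixteen days and are then scored visually from 0 (no effect) to 10 (complete control).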

[2] = system: blackgrass (Alopecurus myosuroides); assay: Test B pre-/postemergence; design: key: 0 is no effect; 10 is complete control; details: for Blackgrass plant response rating: Preemergence
Outline: as §1

[3] = system: broadleaf signalgrass (Brachiaria decumbens); assay: Test B pre-/postemergence; design: key: 0 is no effect; 10 is complete control; details: for B. signalgrass plant response rating: Preemergence
Outline: as §1

[4] = system: cocklebur (Xanthium strumarium); assay: Test B pre-/postemergence; design: key: 0 is no effect; 10 is complete control; details: for Plant response rating, Cocklebur: Postemergence; for Cocklebur plant response rating: Preemergence
Outline: as §1

corn (Zea mays) = assay: Test B pre-/postemergence; design: key: 0 is no effect; 10 is complete control; details: for Corn plant response rating: Preemergence
Outline: as §1

[5] = system: crabgrass (Digitaria sanguinalis); assay: Test B pre-/postemergence; design: key: 0 is no effect; 10 is complete control; details: for Crabgrass plant response rating: Preemergence
Outline: as §1

[6] = system: giant foxtail (Setaria faberii); assay: Test B pre-/postemergence; design: key: 0 is no effect; 10 is complete control
Outline: as §1

[7] = system: momingglory (Ipomoea hederacea); assay: Test B pre-/postemergence; design: key: 0 is no effect; 10 is complete control
Outline: as §1

[8] = system: pigweed (Amaranthus retroflexus); assay: Test B pre-/postemergence; design: key: 0 is no effect; 10 is complete control
Outline: as §1

[9] = system: purple nutsedge (Cyperus rotundus); assay: Test B pre-/postemergence; design: key: 0 is no effect; 10 is complete control
Outline: as §1

rape (Brassica napus) = assay: Test B pre-/postemergence; design: key: 0 is no effect; 10 is complete control
Outline: as §1

soybean (Glycine max) = assay: Test B pre-/postemergence; design: key: 0 is no effect; 10 is complete control
Outline: as §1

[10] = system: sugar beet (Beta vulgaris); assay: Test B pre-/postemergence; design: key: 0 is no effect; 10 is complete control
Outline: as §1

[11] = system: velvetleaf (Abutilon theophrasti); assay: Test B pre-/postemergence; design: key: 0 is no effect; 10 is complete control
Outline: as §1

[12] = system: wheat (Triticum aestivum); assay: Test B pre-/postemergence; design: key: 0 is no effect; 10 is complete control
Outline: as §1

wild oat (Avena fatua) = assay: Test B pre-/postemergence; design: key: 0 is no effect; 10 is complete control
Outline: as §1

[13] = system: bamyardgrass (Echinochloa crus-galli); assay: Test B flood test
Outline: (§2)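 Read-out is a visual response score from 0 (no effect) to 10 (complete control), assigned by comparison with untreated controls. Treatment was applied at the 2-leaf stage, and plants stayed in the greenhouse for twelve to sixteen days before scoring.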

[14] = system: duck salad (Heteranthera limosa); assay: Test B flood test
Outline: as §2

rice (Oryza sativa) = assay: Test B flood test
Outline: as §2

[15] = system: smallflower flatsedge (Cyperus difformis); assay: Test B flood test
Outline: as §2

[16] = Rate 250 g/ha, Postemergence (so in the source)
[17] = Rate 62 g/ha, Postemergence (flood test)
[18] = Rate 125 g/ha, Postemergence, flood test
[19] = Rate 250 g/ha, Postemergence (flood test species)
[20] = Rate 125 g/ha, Postemergence section (flood test species)

SMILES: Cc1cnc(-c2ccc(Cl)cc2)nc1Cc1cccc(C(F)(F)F)c1 [Compound 28]
- Plant response rating, Bedstraw ([1]; Rate 62 g/ha, Postemergence): 2
- Bedstraw plant response rating ([1]; Rate 62 g/ha): 2
- Plant response rating, Bedstraw ([1]; Rate 125 g/ha, Postemergence): 8
- Bedstraw plant response rating ([1]; Rate 125 g/ha): 4
- Plant response rating, Bedstraw ([1]; Rate 250 g/ha, Postemergence): 8
- Plant response rating, Bedstraw [1, 16]: 8
- Plant response rating, Blackgrass ([2]; Rate 62 g/ha, Postemergence): 4
- Blackgrass plant response rating ([2]; Rate 62 g/ha): 2
- Plant response rating, Blackgrass ([2]; Rate 125 g/ha, Postemergence): 5
- Blackgrass plant response rating ([2]; Rate 125 g/ha): 5
- Plant response rating, Blackgrass ([2]; Rate 250 g/ha, Postemergence): 8
- Plant response rating, Blackgrass [2, 16]: 6
- Plant response rating, B. signalgrass ([3]; Rate 62 g/ha, Postemergence): 4
- B. signalgrass plant response rating ([3]; Rate 62 g/ha): 2
- Plant response rating, B. signalgrass ([3]; Rate 125 g/ha, Postemergence): 5
- B. signalgrass plant response rating ([3]; Rate 125 g/ha): 5
- Plant response rating, B. signalgrass ([3]; Rate 250 g/ha, Postemergence): 9
- Plant response rating, B. signalgrass ([3]; Rate 250 g/ha, Postemergence as printed in head r139 (second section for compounds 26-50)): 9
- Plant response rating, Cocklebur ([4]; Rate 62 g/ha): 7
- Cocklebur plant response rating ([4]; Rate 62 g/ha): 0
- Plant response rating, Cocklebur ([4]; Rate 125 g/ha): 8
- Cocklebur plant response rating ([4]; Rate 125 g/ha): 0
- Plant response rating, Cocklebur ([4]; Rate 250 g/ha): 8
- Plant response rating, Corn (corn (Zea mays); Rate 62 g/ha, Postemergence): 2
- Corn plant response rating (corn (Zea mays); Rate 62 g/ha): 0
- Plant response rating, Corn (corn (Zea mays); Rate 125 g/ha, Postemergence): 3
- Corn plant response rating (corn (Zea mays); Rate 125 g/ha): 0
- Plant response rating, Corn (corn (Zea mays); Rate 250 g/ha, Postemergence): 4
- Plant response rating, Corn (corn (Zea mays); [16]): 1
- Plant response rating, Crabgrass ([5]; Rate 62 g/ha, Postemergence): 3
- Crabgrass plant response rating ([5]; Rate 62 g/ha): 2
- Plant response rating, Crabgrass ([5]; Rate 125 g/ha, Postemergence): 9
- Crabgrass plant response rating ([5]; Rate 125 g/ha): 4
- Plant response rating, Crabgrass ([5]; Rate 250 g/ha, Postemergence): 10
- Plant response rating, Crabgrass [5, 16]: 10
- Plant response rating, Giant foxtail ([6]; Rate 62 g/ha, Postemergence): 3
- Giant foxtail plant response rating ([6]; Rate 62 g/ha, Preemergence): 4
- Giant foxtail plant response rating ([6]; Rate 125 g/ha, Postemergence): 4
- Giant foxtail plant response rating ([6]; Rate 125 g/ha, Preemergence): 9
- Plant response rating, Giant foxtail ([6]; Rate 250 g/ha, Postemergence): 9
- Plant response rating, Giant foxtail [6, 16]: 10
- Plant response rating, Morningglory ([7]; Rate 62 g/ha, Postemergence): 3
- Morningglory plant response rating ([7]; Rate 62 g/ha, Preemergence): 2
- Morningglory plant response rating ([7]; Rate 125 g/ha, Postemergence): 3
- Morningglory plant response rating ([7]; Rate 125 g/ha, Preemergence): 2
- Plant response rating, Morningglory ([7]; Rate 250 g/ha, Postemergence): 3
- Plant response rating, Morningglory [7, 16]: 3
- Plant response rating, Redroot pigweed ([8]; Rate 62 g/ha, Postemergence): 8
- Redroot pigweed plant response rating ([8]; Rate 62 g/ha, Preemergence): 5
- Redroot pigweed plant response rating ([8]; Rate 125 g/ha, Postemergence): 9
- Redroot pigweed plant response rating ([8]; Rate 125 g/ha, Preemergence): 6
- Plant response rating, Redroot pigweed ([8]; Rate 250 g/ha, Postemergence): 10
- Plant response rating, Redroot pigweed [8, 16]: 7
- Plant response rating, Nutsedge ([9]; Rate 62 g/ha, Postemergence): 0
- Nutsedge plant response rating ([9]; Rate 62 g/ha, Preemergence): 0
- Nutsedge plant response rating ([9]; Rate 125 g/ha, Postemergence): 3
- Nutsedge plant response rating ([9]; Rate 125 g/ha, Preemergence): 0
- Plant response rating, Nutsedge [9, 16]: 0
- Plant response rating, Rape (rape (Brassica napus); Rate 62 g/ha, Postemergence): 9
- Rape plant response rating (rape (Brassica napus); Rate 62 g/ha, Preemergence): 1
- Rape plant response rating (rape (Brassica napus); Rate 125 g/ha, Postemergence): 9
- Rape plant response rating (rape (Brassica napus); Rate 125 g/ha, Preemergence): 2
- Plant response rating, Rape (rape (Brassica napus); Rate 250 g/ha, Postemergence): 10
- Plant response rating, Rape (rape (Brassica napus); [16]): 4
- Plant response rating, Soybean (soybean (Glycine max); Rate 62 g/ha, Postemergence): 4
- Soybean plant response rating (soybean (Glycine max); Rate 62 g/ha, Preemergence): 0
- Soybean plant response rating (soybean (Glycine max); Rate 125 g/ha, Postemergence): 7
- Plant response rating, Soybean (soybean (Glycine max); Rate 125 g/ha, Preemergence): 0
- Plant response rating, Soybean (soybean (Glycine max); Rate 250 g/ha, Postemergence): 7
- Plant response rating, Soybean (soybean (Glycine max); [16]): 1
- Plant response rating, Sugarbeets ([10]; Rate 62 g/ha, Postemergence): 9
- Sugarbeets plant response rating ([10]; Rate 62 g/ha, Preemergence): 0
- Sugarbeets plant response rating ([10]; Rate 125 g/ha, Postemergence): 9
- Plant response rating, Sugarbeets ([10]; Rate 125 g/ha, Preemergence): 2
- Plant response rating, Sugarbeets ([10]; Rate 250 g/ha, Postemergence): 10
- Plant response rating, Sugarbeets [10, 16]: 3
- Plant response rating, Velvetleaf ([11]; Rate 62 g/ha, Postemergence): 3
- Velvetleaf plant response rating ([11]; Rate 62 g/ha, Preemergence): 1
- Velvetleaf plant response rating ([11]; Rate 125 g/ha, Postemergence): 4
- Plant response rating, Velvetleaf ([11]; Rate 125 g/ha, Preemergence): 1
- Plant response rating, Velvetleaf ([11]; Rate 250 g/ha, Postemergence): 8
- Plant response rating, Velvetleaf [11, 16]: 2
- Wheat plant response rating ([12]; Rate 62 g/ha, Postemergence): 3
- Wheat plant response rating ([12]; Rate 62 g/ha, Preemergence): 0
- Wheat plant response rating ([12]; Rate 125 g/ha, Postemergence): 4
- Plant response rating, Wheat ([12]; Rate 125 g/ha, Preemergence): 0
- Plant response rating, Wheat ([12]; Rate 250 g/ha, Postemergence): 5
- Plant response rating, Wheat [12, 16]: 0
- Wild oats plant response rating (wild oat (Avena fatua); Rate 62 g/ha, Postemergence): 4
- Wild oats plant response rating (wild oat (Avena fatua); Rate 62 g/ha, Preemergence): 3
- Wild oats plant response rating (wild oat (Avena fatua); Rate 125 g/ha, Postemergence): 5
- Plant response rating, Wild oats (wild oat (Avena fatua); Rate 125 g/ha, Preemergence): 3
- Plant response rating, Wild oats (wild oat (Avena fatua); Rate 250 g/ha, Postemergence): 6
- Plant response rating, Wild oats (wild oat (Avena fatua); [16]): 4
- Plant response rating, Barnyardgrass [13, 17]: 3
- Plant response rating, Barnyardgrass [13, 18]: 4
- Plant response rating, Barnyardgrass [13, 19]: 5
- Plant response rating, Ducksalad [14, 17]: 2
- Plant response rating, Ducksalad [14, 18]: 3
- Plant response rating, Ducksalad [14, 19]: 6
- Plant response rating, Rice (rice (Oryza sativa); [17]): 2
- Rice plant response rating (rice (Oryza sativa); [20]): 2
- Plant response rating, Rice (rice (Oryza sativa); [19]): 3
- Plant response rating, S. Flatsedge [15, 17]: 5
- S. Flatsedge plant response rating [15, 20]: 8
- Plant response rating, S. Flatsedge [15, 19]: 8
